For assay [1], the system named is GAL4 (yeast transcription activator)—PPARγ fusion protein. Nature of the assay: PPARγ agonist activity assay (GAL4-PPARγ / CAT reporter in COS-1 cells). The note with it: for PPARγ agonist activity compared with 15-deoxy-PG J2 positive control: 1 μM; for PPARγ agonist activity relative to the negative control group with no drug added: concentration of 1 μM. The assay is classed as cell-based. The protocol: COS-1 cells were cotransfected with a plasmid for expressing a GAL4 (yeast transcription activator)—PPARγ fusion protein (effector plasmid) and a reporter plasmid 17 M2 CAT (GAL4 responsive sequence+TK promoter+chloramphenicol acetyltransferase cDNA), and then test compounds were added to the culture medium and CAT activity was assayed after 24 hours and compared with a negative control (with no drug added) to calculate a relative CAT activity, whereby PPARγ agonist activity was evaluated ('90 Proc. Natl. Acad. Sci. USA 87, p. 9995; '94 J. B. C. 269, p. 32700; '95 ibid. p. 5858; '00 J.B.C. 275, p. 33201). […] Then, 4(S)-OH-DHA, 8(S)-OH-DHA, 10(S)-OH-DHA, 11(S)-OH-DHA, 14(S)-OH-DHA and 17(S)-OH-DHA prepared in Example 1 were used as test compounds to assay PPARγ agonist activity as compared with 15-deoxy-PG J2 (from Bio Mol) known as a ligand for PPARγ as a positive control.

The test system of another assay is platelets. Nature of the assay: Ex vivo collagen-induced platelet aggregation assay. The assay is classed as in vivo, rats. Particulars: 3-6 μg/ml collagen. How it is done:
An evaluation was made to determine whether or not collagen-induced platelet aggregation is inhibited by 4(S)-OH-DHA.
Male SD rats (SPF, 9 weeks of age) were anesthetized and then blood was collected from the abdominal aorta into a tube containing 3.8% sodium citrate (Chitoral from Yamanouchi Pharmaceutical Co., Ltd.). The tube was centrifuged at 900 rpm at room temperature for 10 minutes to collect the supernatant (PRP, platelet-rich fraction), and the residue was further centrifuged at 2500 rpm for 15 minutes to collect the supernatant (PPP, platelet-poor fraction).
A cuvette containing PPP (platelet-poor fraction) was placed in an incubator for PPP at 37° C. in an aggregometer (Hematracer 240 12 ch, from MCM). Then, a cuvette containing 200 μl of PRP (platelet-rich fraction) was placed in a reactor for PRP. The cuvettes were stirred with a magnetic stirrer for 30 seconds to automatically correct the permeability of PPP to T650 nm=100% and the permeability of PRP to T650 nm=0%.
After 1 minute, 20 μl of collagen (from MCM) was added and subsequent changes in permeability were recorded for 5 minutes. The permeability increases with platelet aggregation. The permeability T at maximum aggregation, i.e. at the peak of aggregation was compared with the permeability T0 of a negative control to determine the degree of aggregation inhibition expressed in percentage using the following equation. Aggregation inhibition=(1−T/T0)×100
The aggregation induced by 3-6 μg/ml of collagen was evaluated in platelets prepared from blood collected at 2 instants, i.e. 10 minutes and 60 minutes after administration of 10 mg/kg of 4(S)-OH-DHA to the tail vain of male SD rats (SPF, 9 weeks of age). The aggregation was determined in animals treated with vehicle (physiological saline) as a control group.
As a control, a solvent (physiological saline) was used. Aggregation was induced by 3-6 μg/ml of collagen in platelets prepared from blood collected 10 minutes after administration of 10, 1 or 0.1 mg/kg of the test compound to the tail vain of rats.

Assay [2] deals with neutrophils and vascular endothelial cells. In words: In vitro model simulating vascular inflammation induced by TNFα (transwell). The note with it: 30, 3 or 0.3 μM together with TNFα. The assay is classed as cell-based, bovine. How it is done:
An in vitro model simulating vascular inflammation was prepared according to the method described in “Textbook on Biopharmaceutical Experiments, 12 Inflammation and Allergy II”, pp. 327-341 (edited by Kazuo Ouchi, published by Hirokawa Publishing Co., May 15, 1993).
Transwells (from Kurabo Industries, Ltd.) divided into upper and lower chambers by a porous polycarbonate membrane having a pore size of 3 μm were used and a layer of bovine endothelial cells were coated on the bottom of the membrane and incubated at 37° C. under 5% CO2 for 80 minutes. […]
To the upper chamber of the transwells was added a suspension of neutrophils containing 4(S)-OH-DHA at a final concentration of 30, 3 or 0.3 μM together with TNFα to count the number of neutrophils permeating the vascular endothelial cell layer from the upper chamber into the lower chamber and the number of neutrophils adhering to the endothelial cell layer in the same manner as described above, and thereafter the migration and adhesion (%) of neutrophils were calculated.
The migration and adhesion percentages of neutrophils were expressed as relative values of the numbers of neutrophils that migrated or adhered in the group treated with the drug as compared with neutrophils in a negative control group.

In assay [3] the test system is hereditary diabetes db/db mice. In words: Evaluation on hereditary diabetes mice (blood sugar). The assay is classed as in vivo. Particulars: oral 100 mg/kg for a week, n=6. The protocol:
As a result of oral administration of 100 mg/kg of 8(S)-OH-DHA and 14(S)-OH-DHA to hereditary diabetes db/db mice (average body weight: 42 g, n=6, available from Sankyo Co., Ltd.) for a week, a significant decrease in blood sugar levels could be observed as compared with a negative control group (treated with 5% gum acacia as a vehicle) (Table 1).

The subject of another assay is rat aortic smooth muscle. The note with it: contraction induced by thromboxane A2 analog U 46619 (2.5 μM); cited from earlier work.

Each structure is given as a SMILES string.

For `CC/C=C\C/C=C\C/C=C\C/C=C\C/C=C\C=C\[C@@H](O)CCC(=O)O` [4(S)-OH-DHA], the “PPARγ agonist activity compared with 15-deoxy-PG J2 positive control” value in assay [1] is on record as “comparable to or higher than that of 15-deoxy-PG J2”. Further, the “PPARγ agonist activity relative to the negative control group with no drug added” value in assay [1] (CAT activity after 24 hours) is on record as “about 3 times”. The “Platelet aggregation vs vehicle group” value is on record as “platelet aggregation was inhibited” in the assay on platelets (1 mg/kg to tail vein, blood collected 10 minutes after administration); “platelet aggregation was inhibited” in the assay with platelets (10 mg/kg to tail vein, blood collected 10 minutes after administration); “platelet aggregation was inhibited” in the assay with platelets (10 mg/kg to tail vein, blood collected 60 minutes after administration). In addition, the “Adhesion of neutrophils to the endothelial cell layer” value in assay [2] is on record as “inhibited”. For the same compound, in assay [2], the “Permeation (migration) of neutrophils through the endothelial cell layer” value is recorded as “inhibited”.

Consider `CC/C=C\C/C=C\C/C=C\C/C=C\C[C@H](O)/C=C/C=C\CCC(=O)O` [8(S)-OH-DHA], for which the “PPARγ agonist activity compared with 15-deoxy-PG J2 positive control” value in assay [1] was “comparable to or higher than that of 15-deoxy-PG J2”. Also, the “PPARγ agonist activity relative to the negative control group with no drug added” value in assay [1] (CAT activity after 24 hours) is recorded as “about 7 times”. Further, the Blood sugar level in assay [3] amounted to 190 ± 20 mg/dL.

Regarding `CC/C=C\C/C=C\C/C=C\C=C\[C@@H](O)C/C=C\C/C=C\CCC(=O)O` [10(S)-OH-DHA], the “PPARγ agonist activity compared with 15-deoxy-PG J2 positive control” value in assay [1] is “comparable to or higher than that of 15-deoxy-PG J2”. In addition, in assay [1] (CAT activity after 24 hours), the “PPARγ agonist activity relative to the negative control group with no drug added” value is “about 3 times”.

As to `CC/C=C\C/C=C\C/C=C\C[C@H](O)/C=C/C=C\C/C=C\CCC(=O)O` [11(S)-OH-DHA], the “PPARγ agonist activity compared with 15-deoxy-PG J2 positive control” value in assay [1] is on record as “comparable to or higher than that of 15-deoxy-PG J2”. For the same compound, the “PPARγ agonist activity relative to the negative control group with no drug added” value in assay [1] (CAT activity after 24 hours) is reported as “about 3 times”.

Regarding `CC/C=C\C/C=C\C[C@H](O)/C=C/C=C\C/C=C\C/C=C\CCC(=O)O` [14(S)-OH-DHA], the “PPARγ agonist activity compared with 15-deoxy-PG J2 positive control” value in assay [1] was “comparable to or higher than that of 15-deoxy-PG J2”. For the same compound, the “PPARγ agonist activity relative to the negative control group with no drug added” value in assay [1] (CAT activity after 24 hours) is recorded as “about 7 times”. For the same compound, the Blood sugar level in assay [3] is 220 ± 13 mg/dL.

Take `CC/C=C\C/C=C\CC(O)/C=C/C=C\C/C=C\C/C=C\CCC(=O)O` (stereo not drawn) [14OH-DHA]: the “25% inhibition concentration IC25” value in the assay with rat aortic smooth muscle was 1070 ± 340 nM.

As to `CC/C=C\C[C@H](O)/C=C/C=C\C/C=C\C/C=C\C/C=C\CCC(=O)O` [17(S)-OH-DHA], the “PPARγ agonist activity compared with 15-deoxy-PG J2 positive control” value in assay [1] is recorded as “comparable to or higher than that of 15-deoxy-PG J2”. Also, the “PPARγ agonist activity relative to the negative control group with no drug added” value in assay [1] (CAT activity after 24 hours) is “about 3 times”.

Consider `CC/C=C\C/C=C\C/C=C\C/C=C\C/C=C\C/C=C\CCC(=O)O` [DHA, docosahexaenoic acid, reference compound], for which, in assay [1] (test compound at 3 μM, CAT activity after 24 hours), the “PPARγ transcription activity, ratio as compared with the negative control” value was determined as 205±79%.

Values taken from US20060142391A1, “PPARGAMMA-ACTIVATING PHARMACEUTICAL COMPOSITION” (priority 2001, published 2006).
